## N#Cc1ccc(Br)cc1
  logP: 2.42

## COc1ccc(C(C#N)C(C)C)cc1 (configuration not stated)
  logP: 2.68

## CC(C)C(C#N)c1ccccc1 (configuration not stated)
  logP: 2.89

## COc1ccc(C#N)cc1[N+](=O)[O-]
  logP: 1.23

## CCOc1ccc(C#N)cc1[N+](=O)[O-]
  logP: 1.77

## N#Cc1ccc(O)c(Br)c1
  logP: 1.75

## CCOc1ccc(C#N)cc1OC
  logP: 2.06

## CC(C)C(C#N)c1ccc([N+](=O)[O-])cc1 (configuration not stated)
  logP: 2.63

## N#Cc1ccc(Cl)c(Cl)c1
  logP: 2.98

## COc1ccc(C#N)cc1OC
  logP: 1.42

## COc1ccc(C#N)cc1Br
  logP: 2.35

## COc1ccc(C#N)cc1
  logP: 1.49

## COc1cc(C#N)ccc1O
  logP: 0.82

## N#Cc1cccc([N+](=O)[O-])c1
  logP: 1.3

## CCOc1ccc(C#N)cc1
  logP: 2.03

## CCOc1cc(C#N)ccc1O
  logP: 1.36

## CCOc1ccc(C#N)cc1Br
  logP: 2.99

From the SangsterLogP compilation
